Measurements published in ChEMBL document CHEMBL3639008, “Pyridopyrazines as highly selective ras-Raf-Mek-Erk signal transduction pathway inhibitors” (2014).

Molecular target: Mitogen-activated protein kinase 1 (Homo sapiens, UniProt P28482)
Assay: Cell-Free Kinase Assays: The inhibitory effect of the compounds according to the invention was tested on various serine/threonine, tyrosine and lipid kinases in enzymatic assays. Recombinant human kinases such as, for example, Erk2, were used in this case, partly as full-length kinases, partly as shortened fragments, but at least consisting of the functional kinase domains. The commercial kinase proteins (Proqinase, Upstate) were used as recombinant fusion proteins with GST (glutathion-S-transferase) or His-Tag. Depending on the type of substrate, the various kinase reactions were quantified by means of suitable ALPHA beads (Perkin-Elmer). MAPK-ALPHAs (e.g. Erk2): the test substance, 0.625 ng Erk2 (#14-173, Upstate), 10 uM ATP and 15 nM biotinylated MBP (myelin basic protein) substrate were incubated on a 384-well Optiplate (Perkin-Elmer) in a volume of 15 ul for 1 h in 25 mM Tris, 10 mM MgCl2, 0.1% Tween-20, 100 uM NaVO4, 2 mM DTT at pH 7.5.

Chain of Mitogen-activated protein kinase 1 (P28482 whole entry, the tested form may be a part): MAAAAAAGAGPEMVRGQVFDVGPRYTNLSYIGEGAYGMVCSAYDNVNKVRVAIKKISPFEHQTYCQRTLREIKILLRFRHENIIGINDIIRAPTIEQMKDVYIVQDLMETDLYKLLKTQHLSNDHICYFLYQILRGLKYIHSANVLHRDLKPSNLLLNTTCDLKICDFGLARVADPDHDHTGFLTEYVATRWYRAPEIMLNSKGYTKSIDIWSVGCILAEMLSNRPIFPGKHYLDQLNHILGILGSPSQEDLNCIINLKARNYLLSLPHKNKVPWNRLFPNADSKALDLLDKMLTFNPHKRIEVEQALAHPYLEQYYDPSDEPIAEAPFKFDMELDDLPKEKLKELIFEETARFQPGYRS

- IC50: 2 nM
Compound: O=C(NCCCCc1ccccc1)Nc1ccc2ncc(-c3cnn(CC(F)F)c3)nc2n1
